Each structure is given as a SMILES string.

A short description of data set [1]: Biodistribution and blood clearance of 125I-radiolabelled photosensitisers and PICs in SKOV3 tumour mice. The format is in vivo, BALB/c nude mice. The note with it: mouse, in vivo, iv. On the procedure:
0.1 mg of photosensitiser was dissolved in 0.5 ml PBS. Radiolabelled Iodine (Na^125I, ICN chemicals) was added to 0.1 ml of PBS in Iodogen-coated tubes (Pierce chemicals) and allowed to activate. The activated iodine-125 was transferred to the photosensitiser and allowed to react for 5-10 minutes at room temperature. The radiolabelled photosensitiser was separated from free iodine on a mini silica gel column eluting with 100% PBS to remove the iodinating agent followed by a gradual switch from 10% MeOH/PBS to 100% MeOH with the radiolabelled photosenstiser eluting with 10% MeOH/chloroform. The radiolabelled solutions of the photosensitiser was allowed to air-dry and re-suspended in PBS containing 2% DMSO.
(§1) Female BALB/c nude mice (aged 6-8 weeks old) were implanted with 10^7 SKOV3 tumour cells mixed in 0.1 ml of ice-cold matrigel subcutaneously and the tumours were allowed to grow for 3-6 weeks as xenografts. Mice were maintained in IVC cages (individually-vented cages) in a clean room. Samples were injected in a volume of 0.1 ml, intravenously via the lateral tail vein and the mice were maintained in low light with full food and water (irradiated). At various time points (1-24 hr), mice were culled by cardiac puncture under terminal anesthesia and blood and tissues collected. All the tissues were counted for radioactivity by gamma counting and weighed.
The results are shown as a percentage of radioactive material injected per gram of tissue.
(§2) The PS (PPa and PPa-PEG) were chemically coupled to C6 scFv, radiolabelled with iodogen as before, but dialysed against 3×5 L of PBS to remove the free iodine and injected into BALB/c nude mice with SKOV3 tumours as above. Tissues were dissected and counted as above.

The next data set concerns SKOV3 tumour. Nature of the data set: Tumour uptake and tumour:blood ratio of radiolabelled photosensitisers and PICs. The class given is in vivo, BALB/c nude mice. Particulars: mouse, in vivo. On the procedure:
as §1, §2
The tumours were counted for radioactivity and expressed as % of the injected dose/g of tumour tissue (FIG. 10).
The percentage PS in the tumour was divided by the percentage in the blood (gram for gram) to give a targeting or tumour:blood ratio (the higher the better). This plotted in FIG. 11. A high tumour:blood ratio means that there is more in the tumour compared to the blood (and other tissues). This is a function of tumour uptake and blood clearance (see FIGS. 9 and 10).

The next data set relates to SKOV3 cells. Kind of data set: Confocal fluorescence microscopy, intracellular localisation with organelle co-stains. The class given is cell-based, human. On the procedure: Imaging took place at the FILM Imperial College London on a LEICA SP5 MP inverted confocal microscope, at 37° C. and under a CO2 supplemented atmosphere. The water objective (63×) was used in all the experiments. Images were processed using the Leica software, Image J and Powerpoint.
Note: in any experiment where a photosensitiser is used on cells, the experiment is done under subdued lighting exposing the cells to as little light as possible and incubating wrapped in foil. Following addition of PS to cells, cells were no longer observed on the microscope.
Cells were plated on a Labt-Tek® 8 Chambered #1.0 Borosilicate Coverglass System. With some cell lines, it is often useful to use an attachment factor (200 μl, 30 mins, 37° C.) to coat the wells first.
Photosensitiser solutions in phenol red free DMEM (10% FBS, 1% P/S, 0.5% DMSO) were prepared fresh and pre-warmed to 37° C. for 15 mins. The cells were washed with media (1×200 μl) before adding the solutions (200 μl per chamber). Unless otherwise stated, the cells were grown over 20 hrs in a humidified atmosphere (37° C., 5% CO2). The cells were washed (2×200 μl) with prewarmed phenol red free DMEM
Lysotracker® Green DND-26 was diluted according to manufacturers indications (1 mM stock) and further diluted to twice the working concentration in DMEM (10% FBS, 1% P/S). For use for single colour staining, this was diluted with DMEM (10% FBS, 1% P/S) to a final concentration of 1 μM. When it was used for two colour staining with photosensitisers, a 2 μM solution was twice diluted in photosensitiser solution to give a 1 μM final concentration.
The cells were incubated for 15 mins at 4° C. and a further 30 mins at 37° C. before replacing with fresh medium and imaging.
MitoTracker® Green was diluted according to manufacturers indications (1 mM stock) and further diluted to twice the working concentration in DMEM (10% FBS, 1% P/S). For use for single colour staining, this was diluted with DMEM (10% FBS, 1% P/S) to a final concentration of 1 μM. When it was used for two colour staining with photosensitisers, a 2 μM solution was twice diluted in photosensitiser solution to give a 1 μM final concentration.
The cells were incubated for 15 mins at 4° C. and a further 1 hr at 37° C. before replacing with fresh medium and imaging.
ER-Tracker™ Green (BODIPY® FL glibenclamide) was diluted according to manufacturer's indications (1 mM stock) and further diluted to twice the working concentration in HBSS buffer (+2% HEPES). For use for single colour staining, this was diluted with HBSS (+2% HEPES) to a final concentration of 3 μM. When it was used for two colour staining with photosensitisers, a 6 μM solution was twice diluted in photosensitiser solution to give a 3 μM final concentration.
The cells were incubated for 15 mins at 4° C. and a further 1 hr at 37° C. before replacing with fresh buffer and imaging.
Bodipy® FL C5-ceramide complexed to BSA was diluted according to manufacturer's indications (0.5 mM stock) and further diluted to twice the working concentration in HBSS buffer (+2 HEPES). For use for single colour staining, this was diluted with HBSS (+2% HEPES) to a final concentration of 5 μM. When it was used for two colour staining with photosensitisers, a 10 μM solution was twice diluted in photosensitiser solution to give a 5 μM final concentration. The cells were incubated for 15 mins at 4° C. and a further 30 mins at 37° C. before washing with cold HBSS/HEPES (3×100 μl) and replacing with either HBSS/HEPES or photosensitiser solution and incubating at 37° C. for a further 30 mins before replacing with fresh buffer and imaging.

As to `CCC1=C(C)c2cc3[nH]c(c(C)c3CC)c(C#CCCCC(=O)ON3C(=O)CCC3=O)c3nc(c4c5[nH]c(cc1n2)c(C)c5C(=O)C4)[C@@H](CCC(=O)OCc1cc(OCCOCCOCCOC)c(OCCOCCOCCOC)c(OCCOCCOCCOC)c1)[C@@H]3C` [compound 11, Meso 5-Ethynylhexanoyl succinimido ester pyropheophorbide a-3,4,5-(triethylene glycolmonomethylether) benzyl ester], the blood clearance entry in data set [1] was “faster than PPa”. The “tumour accumulation relative to the level of PPa” value in the data set on SKOV3 tumour was “about ⅓”. The “golgi localisation (co-localisation with Bodipy ceramide)” value in the data set with SKOV3 cells (FIG. 20) is “significant yellow staining”. Besides, in the data set on SKOV3 cells (FIG. 21), the “mitochondrial localisation (co-localisation with Mito-tracker)” value is reported as “significant yellow staining”. The “lysosomal localisation (co-localisation with Lyso-tracker)” value in the data set with SKOV3 cells (FIG. 22) is on record as “some yellow staining”. In the data set on SKOV3 cells (FIG. 23), the “ER localisation (co-localisation with ER-tracker)” value is “significant yellow staining”.

The values are drawn from US20120070377A1, “COMPOUNDS AND BIOLOGICAL MATERIALS AND USES THEREOF” (priority 2009, published 2012).
